The values below come from PubChem BioAssay AID248 (DTP/NCI, 2004).

The test system of the assay is L1210 leukemia ip in BDF1 mice, survival T/C. The assay is described as follows: NCI In Vivo Anticancer Drug Screen. Data for tumor model L1210 Leukemia (intraperitoneal) in B6D2F1 (BDF1) mice. As to conditions: endpoint: mean survival time, higher = longer survival. An outline of the steps: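 Ratio derived from survival: compound-dosed mice over vehicle-dosed mice, all bearing a transplantable tumor.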

[1] abbreviates: dose: 100.0 mg/kg/injection, schedule: Q01DX001 (ip), vehicle: carboxymethylcellulose (CMC).
[2] abbreviates: dose: 200.0 mg/kg/injection, schedule: Q01DX001 (ip), vehicle: carboxymethylcellulose (CMC).
Setting [3] is: dose: 400.0 mg/kg/injection, schedule: Q01DX001 (ip), vehicle: carboxymethylcellulose (CMC).
[4] abbreviates: dose: 100.0 mg/kg/injection, schedule: Q01DX009 (ip), vehicle: saline with Tween-80.
Where [5] appears, read: dose: 200.0 mg/kg/injection, schedule: Q01DX009 (ip), vehicle: saline with Tween-80.
The mark [6] stands for this setting: dose: 400.0 mg/kg/injection, schedule: Q04DX003 (ip), vehicle: saline with Tween-80.
Where [7] appears, read: dose: 100.0 mg/kg/injection, schedule: Q01DX001 (ip), vehicle: saline.
The mark [8] stands for this setting: dose: 200.0 mg/kg/injection, schedule: Q01DX001 (ip), vehicle: saline.
Setting [9] is: dose: 400.0 mg/kg/injection, schedule: Q01DX001 (ip), vehicle: saline.
Where [10] appears, read: dose: 50.0 mg/kg/injection, schedule: Q01DX001 (ip), vehicle: saline with Tween-80.
The mark [11] stands for this setting: dose: 50.0 mg/kg/injection, schedule: Q01DX001 (ip), vehicle: carboxymethylcellulose (CMC).
Where [12] appears, read: dose: 100.0 mg/kg/injection, schedule: Q01DX001 (ip), vehicle: other.
The mark [13] stands for this setting: dose: 200.0 mg/kg/injection, schedule: Q01DX001 (ip), vehicle: other.
The mark [14] stands for this setting: dose: 400.0 mg/kg/injection, schedule: Q01DX001 (ip), vehicle: other.
Setting [15] is: dose: 100.0 mg/kg/injection, schedule: Q04DX003 (ip), vehicle: Klucel (hydroxypropylcellulose) (HPC).
Where [16] appears, read: dose: 200.0 mg/kg/injection, schedule: Q04DX003 (ip), vehicle: Klucel (hydroxypropylcellulose) (HPC).
The mark [17] stands for this setting: dose: 400.0 mg/kg/injection, schedule: Q04DX003 (ip), vehicle: Klucel (hydroxypropylcellulose) (HPC).
Where [18] appears, read: dose: 100.0 mg/kg/injection, schedule: Q01DX001 (ip), vehicle: saline with Tween-80.

Inconclusive results and toxic doses are left out.

Consider `CC1=NN(c2ccccc2)C(=O)C1N=Nc1ccc(S(=O)(=O)Nc2nnc(C)s2)cc1` (configuration not stated), for which the T/C by setting is: under setting [1], 98 % of control; under setting [2], 106 % of control; under setting [3], 93 % of control.
On to `CC(=O)Nc1ccc2c(c1)C(=O)c1cc(NC(C)=O)ccc1-2`, for which the T/C by setting is: (dose: 50.0 mg/kg/injection, schedule: Q01DX009 (ip), vehicle: saline with Tween-80) 95 % of control; under setting [4], 95 % of control; (dose: 100.0 mg/kg/injection, schedule: Q04DX003 (ip), vehicle: saline with Tween-80) 92 % of control; under setting [5], 101 % of control; (dose: 200.0 mg/kg/injection, schedule: Q04DX003 (ip), vehicle: saline with Tween-80) 86 % of control; under setting [6], 89 % of control.
For `COc1ccc(CN(C)N=Nc2ccc(C#N)cc2)cc1`, the T/C was 98 % of control under setting [4]; 119 % of control under setting [5]; 124 % of control (dose: 400.0 mg/kg/injection, schedule: Q01DX009 (ip), vehicle: saline with Tween-80).
For the compound `Nc1nnc(N)c2ccccc12`, the T/C (dose: 100.0 mg/kg/injection, schedule: Q04DX002 (ip), vehicle: saline) was 100 % of control; the T/C (dose: 200.0 mg/kg/injection, schedule: Q04DX002 (ip), vehicle: saline) is 96 % of control; the T/C (dose: 400.0 mg/kg/injection, schedule: Q04DX002 (ip), vehicle: saline) is 102 % of control.
As for `CCOC(OCC)C(C)(C)OC=O`, the T/C is, setting by setting: under setting [7], 103 % of control; under setting [8], 103 % of control; under setting [9], 103 % of control.
`COCC(O)C(OC)C(OC)C(C=O)NC(=O)N(CCCl)N=O` (configuration not stated): the T/C (dose: 14.0 mg/kg/injection, schedule: Q01DX001 (ip), vehicle: saline with Tween-80) is 159 % of control; the T/C (dose: 22.0 mg/kg/injection, schedule: Q01DX001 (ip), vehicle: saline with Tween-80) was 181 % of control; the T/C (dose: 33.5 mg/kg/injection, schedule: Q01DX001 (ip), vehicle: saline with Tween-80) was 331 % of control; the T/C under setting [10] is 431 % of control; the T/C (dose: 75.0 mg/kg/injection, schedule: Q01DX001 (ip), vehicle: saline with Tween-80) is 489 % of control; the T/C (dose: 112.0 mg/kg/injection, schedule: Q01DX001 (ip), vehicle: saline with Tween-80) is 227 % of control.
Consider `CN1CC(COC(=O)Cc2c[nH]c3ccccc23)C=C2c3cccc4[nH]cc(c34)CC21` (configuration not stated), for which the T/C is, setting by setting: (dose: 25.0 mg/kg/injection, schedule: Q04DX003 (ip), vehicle: alcohol) 98 % of control; (dose: 50.0 mg/kg/injection, schedule: Q04DX003 (ip), vehicle: alcohol) 96 % of control; (dose: 100.0 mg/kg/injection, schedule: Q04DX003 (ip), vehicle: alcohol) 102 % of control; (dose: 200.0 mg/kg/injection, schedule: Q04DX003 (ip), vehicle: alcohol) 96 % of control; (dose: 400.0 mg/kg/injection, schedule: Q04DX003 (ip), vehicle: alcohol) 96 % of control.
`Cc1ccc(S(=O)(=O)Nc2cc(C)cc(CCNC=O)c2C)cc1`: the T/C reads like this: under setting [11], 114 % of control; under setting [1], 109 % of control; under setting [2], 95 % of control; under setting [3], 93 % of control.
Consider `CCSSCC(N)C(=O)O` (configuration not stated), for which the T/C was 94 % of control under setting [12], 103 % of control under setting [13] and 103 % of control under setting [14].
For the compound `CC(C)c1ccc(/C=C2\CSC/C(=C/c3ccc(C(C)C)cc3)C2=O)cc1`, the T/C was 95 % of control under setting [8] and 91 % of control (dose: 200.0 mg/kg/injection, schedule: Q01DX009 (ip), vehicle: saline).
`O=C(C(F)F)C(F)F`: the T/C (dose: 50.0 mg/kg/injection, schedule: Q01DX009 (ip), vehicle: saline) was 91 % of control; the T/C (dose: 100.0 mg/kg/injection, schedule: Q01DX009 (ip), vehicle: saline) was 91 % of control; the T/C (dose: 100.0 mg/kg/injection, schedule: Q04DX003 (ip), vehicle: saline) was 106 % of control; the T/C (dose: 200.0 mg/kg/injection, schedule: Q04DX003 (ip), vehicle: saline) is 104 % of control.
With `CN(C)N=Nc1ccc(C(=O)N/N=C/c2ccc(Br)cc2)cc1`, the T/C runs as follows: under setting [15], 94 % of control; under setting [16], 104 % of control; under setting [17], 95 % of control.
Consider `CC1=CC(=O)C2C(C)(O1)C1C(=O)C=C(C)OC21C` (configuration not stated), for which the T/C is 93 % of control (dose: 100.0 mg/kg/injection, schedule: Q01DX001 (ip), vehicle: Klucel (hydroxypropylcellulose) (HPC)); 101 % of control under setting [15]; 101 % of control (dose: 200.0 mg/kg/injection, schedule: Q01DX001 (ip), vehicle: Klucel (hydroxypropylcellulose) (HPC)); 100 % of control under setting [16]; 104 % of control (dose: 400.0 mg/kg/injection, schedule: Q01DX001 (ip), vehicle: Klucel (hydroxypropylcellulose) (HPC)); 92 % of control under setting [17].
Turning to `CC(C)CC(C)OB(OC(C)CC(C)C)OC(C)CC(C)C` (configuration not stated), the T/C reads like this: under setting [11], 102 % of control; under setting [1], 111 % of control; under setting [2], 102 % of control; under setting [3], 96 % of control.
On to `COc1cc(Nc2ccc(Oc3ccc(O)c(CN)c3)cc2)c2ncccc2c1`, for which the T/C runs as follows: (dose: 75.0 mg/kg/injection, schedule: Q01DX001 (ip), vehicle: other) 103 % of control; (dose: 150.0 mg/kg/injection, schedule: Q01DX001 (ip), vehicle: other) 97 % of control; (dose: 300.0 mg/kg/injection, schedule: Q01DX001 (ip), vehicle: other) 100 % of control.
Consider `CCOc1ccc(NC(C)=O)cc1Br`, for which the T/C under setting [12] is 103 % of control, the T/C under setting [13] is 103 % of control and the T/C under setting [14] was 111 % of control.
For the compound `O=c1[nH]c(Cc2ccccc2)c(N=Nc2ccccc2)c(=O)[nH]1`, the T/C reads like this: (dose: 25.0 mg/kg/injection, schedule: Q01DX001 (ip), vehicle: saline with Tween-80) 93 % of control; under setting [10], 93 % of control; under setting [18], 93 % of control.
Regarding `Cc1c(C(=O)O)sc2ccc([N+](=O)[O-])cc12`, the T/C reads like this: under setting [1], 97 % of control; under setting [2], 95 % of control; under setting [3], 92 % of control.
On to `Cc1ccc(S(=O)(=O)OCC(c2ccccc2)C(F)(F)F)cc1` (configuration not stated), for which the T/C reads like this: under setting [18], 94 % of control; (dose: 200.0 mg/kg/injection, schedule: Q01DX001 (ip), vehicle: saline with Tween-80) 100 % of control; (dose: 400.0 mg/kg/injection, schedule: Q01DX001 (ip), vehicle: saline with Tween-80) 101 % of control.
As for `Cc1cccc(NC(=O)Nc2cccc(Cl)c2Cl)n1`, the T/C runs as follows: (dose: 100.0 mg/kg/injection, schedule: Q01DX009 (ip), vehicle: Klucel (hydroxypropylcellulose) (HPC)) 92 % of control; (dose: 100.0 mg/kg/injection, schedule: Q04DX002 (ip), vehicle: Klucel (hydroxypropylcellulose) (HPC)) 89 % of control; (dose: 200.0 mg/kg/injection, schedule: Q01DX009 (ip), vehicle: Klucel (hydroxypropylcellulose) (HPC)) 92 % of control; (dose: 200.0 mg/kg/injection, schedule: Q04DX002 (ip), vehicle: Klucel (hydroxypropylcellulose) (HPC)) 92 % of control; (dose: 400.0 mg/kg/injection, schedule: Q04DX002 (ip), vehicle: Klucel (hydroxypropylcellulose) (HPC)) 103 % of control.
As to `OCC(O)COc1ccccc1` (configuration not stated), the T/C by setting is: under setting [7], 108 % of control; under setting [8], 96 % of control; under setting [9], 96 % of control.
For `O=P(Oc1ccccc1)(Oc1ccccc1)C(Nc1ccccc1)c1ccccc1` (configuration not stated), the T/C under setting [6] is 90 % of control.
`NOC(=O)c1cccc(Cl)c1`: the T/C by setting is: (dose: 100.0 mg/kg/injection, schedule: Q04DX002 (ip), vehicle: saline with Tween-80) 94 % of control; (dose: 200.0 mg/kg/injection, schedule: Q04DX002 (ip), vehicle: saline with Tween-80) 105 % of control; (dose: 400.0 mg/kg/injection, schedule: Q04DX002 (ip), vehicle: saline with Tween-80) 96 % of control.
